Experiment [1] has as its system LNCaP. The experiment in a line: Cell cycle arrest in human LNCap cells assessed as accumulation at G2/M phase relative to control at 5 uM. Format: functional.
The subject of experiment [2] is LNCaP. The experiment in a line: Cell cycle arrest in human LNCap cells assessed as accumulation at S phase relative to control at 5 uM. The format is functional.
Experiment [3] deals with LNCaP. Nature of the experiment: Cell cycle arrest in human LNCap cells assessed as accumulation at G1 phase relative to control at 5 uM. The format is functional.
The test system of experiment [4] is LNCaP. The experiment in a line: Antitumor activity against human LNCap cells xenografted SCID mouse model at 10 to 20 mg/kg/day, sc relative to control. The format is functional. The conditions noted are these: route subcutaneous. Background: Xenograft models place foreign cells or tissue in a host animal.
The test system of experiment [5] is LNCaP. The experiment in a line: Antiproliferative activity against human LNCap by MTT assay. The format is functional, cell-based. Background: Tetrazolium assays rely on reduction of a dye to a coloured formazan, in cell work by metabolically active cells.
Experiment [6] concerns LNCaP. Nature of the experiment: Cell cycle arrest in human LNCap cells assessed as accumulation at G1 phase relative to control at 1 uM. The format is functional.
Experiment [7] deals with LNCaP. Nature of the experiment: Cell cycle arrest in human LNCap cells assessed as accumulation at G2/M phase relative to control at 1 uM. Format: functional.
Experiment [8] relates to LNCaP. The experiment in a line: Cell cycle arrest in human LNCap cells assessed as accumulation at S phase relative to control at 1 uM. The format is functional.
For experiment [9], the system named is LNCaP. Nature of the experiment: Antitumor activity against human LNCap cells xenografted SCID mouse model at 20 to 10 mg/kg/day, sc relative to control. Format: functional. The conditions noted are these: route subcutaneous.

The structures appear in SMILES notation.

In the case of `CC1=C(/C=C/C(C)=C/C=C/C(C)=C/C(=O)Nc2ccc(O)cc2)C(C)(C)CCC1n1ccnc1` (stereo not given), the Activity with LNCaP [1] turned out to be 0%; with LNCaP [2], 10.86%; with LNCaP [3] it was 89.14%; in the experiment on LNCaP [4], 81.6%.

Broadly, the IC50 is the concentration that gives 50% inhibition. Turning to `Nc1ccccc1NC(=O)c1ccc(CNC(=O)OCc2cccnc2)cc1` [ENTINOSTAT], the IC50 in the experiment on LNCaP [5] was 0.36 µM.

The compound `CC(=O)Nc1ccc(C(=O)Nc2ccccc2N)cc1` [TACEDINALINE] had an IC50 in the experiment with LNCaP [5] of 7.4 µM.

For the compound `O=C(CCCCCCC(=O)Nc1ccccc1)NO` [VORINOSTAT], the Activity with LNCaP [6] is listed as 81.9%; in the experiment with LNCaP [7], 0%; with LNCaP [8], 18.1%; in the experiment on LNCaP [9], 97.1%.

Values taken from ChEMBL document CHEMBL1143917, “Improved synthesis of histone deacetylase inhibitors (HDIs) (MS-275 and CI-994) and inhibitory effects of HDIs alone or in combination with RAMBAs or retinoids on growth of human LNCaP prostate cancer cells and tumor xenografts” (Bioorg Med Chem, 2008).
